{"source": "patent US11678683B2", "about": "“Processed edible product comprising a polyelectrolyte complex and an antimicrobial compound” (Ceradis B.V., priority 2013, dated 2023)", "origin": "cited, not measured here", "key": {"[1]": {"details": "neutral aqueous systems"}}, "data": [{"smiles": "C[C@@H]1C/C=C/C=C/C=C/C=C/[C@H](O[C@@H]2O[C@H](C)[C@@H](O)[C@H](N)[C@@H]2O)C[C@@H]2O[C@](O)(C[C@@H](O)C[C@H]3O[C@@H]3/C=C/C(=O)O1)C[C@H](O)[C@H]2C(=O)O", "note": "[Natamycin, natamycin]", "values": [{"measurement": "MIC (Minimal Inhibitory Concentration)", "setting": "most fungi", "result": "less than 10 ppm"}, {"measurement": "Solubility", "setting": "[1]", "result": "30-40 ppm"}]}]}
